# Data taken from patent publication US9597370B2, “Method for promoting hair growth” (INDUSTRIAL TECHNOLOGY RESEARCH INSTITUTE, priority 2013, dated 2017).
# Entries after “also recorded” stand apart in the source; their conditions may differ.
# Tests used:
# [1] = system: hair follicles on the dorsal skin at the refractory telogen phase; test: mouse model of hair regeneration (sample applied on dorsal skin at refractory telogen phase); type: in vivo; details: high dosage level (2000 μM) administrated on the dorsal skin once a day for 10 days; female C57BL/6 mice; negative = no hair growth
# Description: The experimental model of the present disclosure is derived from the mouse model of the hair regeneration, which is studied by Dr. Chuong in University of Southern California.
# The mouse model adopts female C57BL/6 mice (about 8 weeks).
# In accordance with the reports (Muller-Rover et al., 2001; Plikus et al., 2009), after the hair removal on the dorsal skin of the female C57BL/6 mice by wax or uprooting, the hair follicles enter the anagen phase on the seventh day from hair removal. At this time, the dorsal hair will regenerate during the anagen phase, which continues fourteen days. Such step synchronizes all follicles on the dorsal skin.
# The hair follicles on the dorsal skin enter the refractory telogen phase through the anagen phase. The refractory telogen phase continues twenty eight days. In the present disclosure, the sample solution is applied on the dorsal skin, where the hair follicle stays at the refractory telogen phase, to observe whether the peptides are beneficial to hair growth.
# In some embodiments shown in FIG. 1, after the hair removal of the dorsal skin, the new growth hair is removed again at twenty first day after the first hair removal. […] The sample solution is applied on each of the sections for 10 days. The administration of the sample solution includes, but not limited to, the injection (50 μl) and the coating (10 μl). In addition, the dosage of the sample solution includes, but not limited to, the high dosage level (2000 μM) and the low dosage level (200 μM).
# In order to avoid experimental error due to manual operation, a positive control and a negative control are predetermined on two sections. […] The second section 2 is coated with high dosage level of HGP or the pharmaceutical composition for 10 days (once a day). The third section 3 is coated with low dosage level of HGP or the pharmaceutical composition for 10 days (once a day). The fourth section 4 is coated with 100% alcohol for 10 days (once a day). The fourth section 4 is regarded as the negative control. The fifth section 5 is continuously injected with the high dosage of HGP or pharmaceutical composition for 10 days (once a day). The sixth section 6 is continuously injected with the low dosage of HGP or pharmaceutical composition for 10 days (once a day). The HGP prepared for the sections is the same amino acid sequence.
# HGP or pharmaceutical composition having the same as referred at Table 1 is implemented through the above-mentioned process and then the hair regeneration condition is recorded every day. Since the period of the refractory telogen phase is 28 days, it is regarded as a negative result that no hair regeneration is observed at thirtieth day after the administration of the sample solution.
# The number x of the hair growth in the table 3 means that the hair regeneration condition is observed at the x'th day after the high dosage level is administrated on the dorsal skin. For instance, the number (x=5) means that the hair growth is observed at the fifth day. Furthermore, the symbol NA represents the need for further analysis. […] In addition, the “negative” represents no hair growth by using the peptide in accordance with the experimental number.
# [2] = system: β-catenin; test: TCF reporter assay in Human Hair Follicular Keratinocytes (HHFK) cell line; type: cell-based; details: 200 μM peptide, vs untreated CTL, listed as SEQ ID No: 1 peptide
# Protocol: (§1) FIG. 4 illustrates a schematic view of a TCF reporter assay in Human Hair Follicular Keratinocytes (HHFK) cell line. TOP represents that the reporter gene has a functional binding site where β-catenin is bound. […] CTL represents that HHFK cell line is not treated with any stimulant. iPept-2 means that HHFK cell line is treated with the SEQ ID No: 1 peptide.
# (§2) The SEQ ID No. 1 peptide is treated in Human Hair Follicular Keratinocytes (HHFK) and HaCaT Keratinocyte to study the hair growth mechanism induced by the SEQ ID No. 1 peptide.
# (§3) In the present disclosure, HHFK and HaCaT Keratinocyte are used as cell models for realizing the mechanism. Reporter assay is used as bioactivity assays to identify how the SEQ ID No. 1 peptide improves hair growth.
# [3] = system: β-catenin; test: TCF reporter assay in HaCaT Keratinocyte cell line; type: cell-based; details: 200 μM peptide; HaCaT Keratinocytes; vs untreated CTL; listed as SEQ ID No: 1 peptide
# Protocol: as §1, with “3” for “4”, “HaCaT Keratinocyte” for “Human Hair Follicular Keratinocytes (HHFK)”, “HaCaT Keratinocytes are” for “HHFK cell line is”
# as §2, §3
Substance,Number x (hair regeneration condition is observed at the x'th day after administration) [1],"activity of β-catenin (relative luciferase activity, TOP/FOP reporter) [2]","activity of β-catenin (relative luciferase activity, TOP/FOP reporter) [3]"
AGSFFSGRSSSR (a designed peptide according to experiments) [P37],22 days,–,–
AQAGSFVRSSSR (a designed peptide according to experiments) [P35],negative,–,–
AQAVRSSSR (a designed peptide according to experiments) [P14],22 days,–,–
AVRSSSR (a designed peptide according to experiments) [P16],negative,–,–
GPLAQAVRSSSR (a designed peptide according to experiments) [P27],22 days,–,–
GSFAQAVRSSSR (a designed peptide according to experiments) [P29],22 days,–,–
GSFGQAVRSSSR (a designed peptide according to experiments) [P30],negative,–,–
GSFGSAVRSSSR (a designed peptide according to experiments) [P31],22 days,–,–
GSFGSFVRSSSR (a designed peptide according to experiments) [P32],negative,–,–
GSLAQAVRSSSR (a designed peptide according to experiments) [P28],negative,–,–
LAQAGSVRSSSR (a designed peptide according to experiments) [P34],negative,–,–
LAQAVRSSSR (a designed peptide according to experiments) [P13],22 days,–,–
PLAQAVRSSSR (a designed peptide according to experiments) [P12],22 days,–,–
QAGSFGFRSSSR (a designed peptide according to experiments) [P36],negative,–,–
QAVRSSSR (a designed peptide according to experiments) [P15],negative,–,–
RSSSR (a designed peptide according to experiments) [P5],22 days,–,–
SPLAQ (a designed peptide according to experiments) [P3],22 days,–,–
SPLAQA (a designed peptide according to experiments) [P11],22 days,–,–
SPLAQAGSFGSF (a designed peptide according to experiments) [P23],negative,–,–

Substance,Number x (hair regeneration condition is observed at the x'th day after administration) [1],"activity of β-catenin (relative luciferase activity, TOP/FOP reporter) [2]","activity of β-catenin (relative luciferase activity, TOP/FOP reporter) [3]"
SPLAQAV (a designed peptide according to experiments) [P10],22 days,–,–
SPLAQAVGSFGS (a designed peptide according to experiments) [P22],negative,–,–
SPLAQAVR (a designed peptide according to experiments) [P9],19 days,–,–
SPLAQAVRGSFG (a designed peptide according to experiments) [P21],negative,–,–
SPLAQAVRS (a designed peptide according to experiments) [P8],negative,–,–
SPLAQAVRSGSF (a designed peptide according to experiments) [P20],negative,–,–
SPLAQAVRSS (a designed peptide according to experiments) [P7],22 days,–,–
SPLAQAVRSSGS (a designed peptide according to experiments) [P19],negative,–,–
SPLAQAVRSSS (a designed peptide according to experiments) [P6],negative,–,–
SPLAQAVRSSSG [P18],negative,–,–
SPLAQAVRSSSR (a designed peptide according to experiments) [P1],22 days,increase the activity of β-catenin; also recorded: enhance activity of β-catenin,increase the activity of β-catenin; also recorded: enhance activity of β-catenin
SPLAQAVRSSSRT (a designed peptide according to experiments) [P26],negative,–,–
SPLAQAVRSSSRTP (a designed peptide according to experiments) [P25],negative,–,–
SPLAQAVRSSSRTPS (a designed peptide according to experiments) [P4],22 days,–,–
SPLAQFRSSSRG (a designed peptide according to experiments) [P33],negative,–,–
SPLAQGSFGSFG [P24],negative,–,–
VRSSS (a designed peptide according to experiments) [P2],negative,–,–
VRSSSR (a designed peptide according to experiments) [P17],negative,–,–
